Reference: patent publication US20220211691A1, “TREATMENT OF DRY EYE DISEASE” (Aldeyra Therapeutics, Inc., priority 2021, published 2022)

Experiments:
Assay type in all cases: in vivo, human
[1] = test system: subjects with dry eye disease; test: CAE clinical study, initial cohort, Day 1 dry eye assessments; conditions: N = 12; for Schirmer's Test, Change From Baseline: Day 1, after a single dose, vehicle +1.3, P-Value 0.30; for OD4S: Dryness (0-5), Change From Baseline / OD4S: Grittiness (0-5), Change From Baseline: vehicle +0.1, P-Value 0.006; for OD4S: Discomfort (0-5), Change From Baseline / VAS Dryness (0-100), Change From Baseline: P-Value 0.003; for VAS Dryness (0-100), Change From Baseline: vehicle +2
Method: The objective of the study is to evaluate the efficacy of reproxalap, as assessed by tear reactive aldehyde species (RASP) levels, after single and multiple doses in subjects with dry eye disease. The efficacy of reproxalap will also be assessed by tear RASP levels, conjunctival redness, Schirmer's Test, and dry eye symptoms after dosing immediately prior to and during exposure to the Controlled Adverse Environment (CAE®) over 2 hours, in subjects with dry eye disease. CAE® chambers allow standardization of variables, such as temperature, humidity, airflow, and visual tasking (see Calonge et al., Current Eye Res., 2018, 43(4):445-450; see also Ousler, III et al., Ophthalmol Ther., 2017, 6(2): 263-276) Dosage/Dose Regimen. A Reproxalap solution (0.25% w/v or 0.1% w/v) is administered topically to both eyes. The control is a Vehicle Control Solution. The test article is administered QID on Day 1 (Visit 2). On Day 2 (Visit 3), test article is administered once 2 or 5 minutes immediately prior to the CAE®, once 45 minutes after initiation of the CAE®, and once at CAE® exit. The primary endpoint is the change in levels of reactive aldehyde species (RASP) in tears. Secondary endpoints include the following: • Visual analog scale eye dryness score assessed over 90 minutes in CAE®. • Ora Calibra Ocular Discomfort Scale assessed over 90 minutes in CAE®. • Conjunctival redness assessed at over 90 minutes via digital photography in the CAE® (Key Secondary Sign Endpoint). • Schirmer's Test assessed 10 minutes after dosing. • Post-CAE® RASP change from baseline. General Statistical Methods and Types of Analyses. The primary endpoint and secondary endpoints of Schirmer's Test and post-CAE® RASP is assessed via analysis of covariance (ANCOVA), with baseline score as a covariate. Initial Cohort of the trial will enroll twenty subject who meet the inclusion criteria. The Initial Cohort phase will be limited to Visit 1 (Screening), Visit 2 (Day 1), and Visit 3 (Day 2). At Day 1, evaluations include Dry Eye symptoms, Schirmer's test, and tear RASP levels. At Day 2 (Chamber test), evaluations include Dry Eye symptoms, Ocular Redness, and tear RASP levels. • Day 1 Schirmer's Test results is based on improvement after a single dose; all other Day 1 assessments were performed over 24 hours of QID dosing.

[2] = test system: malondialdehyde (MDA) adducts in tears; test: MDA adduct competitive ELISA of tears, Phase 2a clinical study; conditions: 28 days / 4-week treatment, all treatment groups pooled
From the text: The study was to assess levels of malondialdehyde (MDA) adducts in tears collected from subjects with dry eye disease enrolled in a Phase 2a, randomized, double-masked, clinical study to assess the safety, tolerability, and pharmacodynamic activity of ADX-102 ophthalmic solution in subjects with dry eye diseases, also referred to herein as dry eye syndrome (DES).
Tears were collected during Visit 1, prior to treatment, and during Visit 3, following four weeks of treatment. Treatment groups consisted of ADX-102 Ophthalmic Solution (0.5%), ADX-102 Ophthalmic Solution (0.1%), and ADX-102 Ophthalmic Lipid Solution (0.5%). […]
The assay is a competitive ELISA. […] The plate is read in a microplate reader at 450 nm. The assay OD reading decreases with increasing MDA adducts in the samples, as the adsorbed MDA competes for binding to the MDA antibody with MDA adducts in the test sample. […]
DES Study Samples. Based on the results of the pilot assay, a 1:60 dilution was determined to maximize the likelihood of the OD values falling within the linear portion of the standard curve, and thus provide the most accurate results. All tear samples from subjects (0.5% ADX-102 Ophthalmic Solution) and (0.1% ADX-102 Ophthalmic Solution) were analyzed, but results from some tear samples were excluded from the data analysis due to contamination with ocular staining dye in the Visit 3 samples. […]

[3] = test system: subjects with dry eye disease; test: CAE clinical study, initial cohort, Day 2 dry eye chamber
Method: The objective of the study is to evaluate the efficacy of reproxalap, as assessed by tear reactive aldehyde species (RASP) levels, after single and multiple doses in subjects with dry eye disease. The efficacy of reproxalap will also be assessed by tear RASP levels, conjunctival redness, Schirmer's Test, and dry eye symptoms after dosing immediately prior to and during exposure to the Controlled Adverse Environment (CAE®) over 2 hours, in subjects with dry eye disease. CAE® chambers allow standardization of variables, such as temperature, humidity, airflow, and visual tasking (see Calonge et al., Current Eye Res., 2018, 43(4):445-450; see also Ousler, III et al., Ophthalmol Ther., 2017, 6(2): 263-276) Dosage/Dose Regimen. A Reproxalap solution (0.25% w/v or 0.1% w/v) is administered topically to both eyes. The control is a Vehicle Control Solution. The test article is administered QID on Day 1 (Visit 2). On Day 2 (Visit 3), test article is administered once 2 or 5 minutes immediately prior to the CAE®, once 45 minutes after initiation of the CAE®, and once at CAE® exit. The primary endpoint is the change in levels of reactive aldehyde species (RASP) in tears. Secondary endpoints include the following: • Visual analog scale eye dryness score assessed over 90 minutes in CAE®. • Ora Calibra Ocular Discomfort Scale assessed over 90 minutes in CAE®. • Conjunctival redness assessed at over 90 minutes via digital photography in the CAE® (Key Secondary Sign Endpoint). • Schirmer's Test assessed 10 minutes after dosing. • Post-CAE® RASP change from baseline. Secondary endpoints of conjunctival redness and symptoms in the CAE® is assessed via mixed effect model for repeated measures (MMRM), with baseline score as a covariate, and time and test article group as factors. In one of the CAE® studies, one dose is given 2 min prior to chamber entry. Another dose is administered 45 min after chamber entry. In some instances, subjects receive one day prior to chamber entry. Thus, some subjects receive: one dose on day prior to, one dose immediately before, and one dose 45 min after entry into a 90 min dry eye chamber with minimal humidity, high airflow, and forced visual tasking. In some instances, the subjects are given a dose at exit of the CAE®.

[4] = Safety of topical ocular reproxalap across clinical trials
Method: • Day 1 Schirmer's Test results is based on improvement after a single dose; all other Day 1 assessments were performed over 24 hours of QID dosing.

[5] = Day 1, over 24 hours of QID dosing
[6] = Day 1, over 24 hours of QID dosing, listed as reproxalap

## CC(C)(O)c1nc2ccc(Cl)cc2cc1N [Reproxalap, reproxalap]
[1]
  Schirmer's Test, Change From Baseline: +3.4 mm
[1]; listed as reproxalap
  Schirmer's Test, Change From Baseline: directionally in favor of reproxalap over vehicle
[1]; [5]
  OD4S: Dryness (0-5), Change From Baseline: −1.2
  OD4S: Grittiness (0-5), Change From Baseline: −1.1
  VAS Dryness (0-100), Change From Baseline: −26
[1]; [6]
  OD4S: Dryness (0-5), Change From Baseline: statistically superior to vehicle
  OD4S: Grittiness (0-5), Change From Baseline: statistically superior to vehicle
  VAS Dryness (0-100), Change From Baseline: statistically superior to vehicle
[1]; Day 1, over 24 hours of QID dosing, vehicle +0.4
  OD4S: Discomfort (0-5), Change From Baseline: −0.7
[1]; Day 1, over 24 hours of QID dosing, vehicle +0.4, listed as reproxalap
  OD4S: Discomfort (0-5), Change From Baseline: statistically superior to vehicle
[1]; Day 1, over 24 hours of QID dosing, vehicle +0.4, P-Value 0.07
  Ocular Discomfort Scale (0-4), Change From Baseline: −0.7
[1]; Day 1, over 24 hours of QID dosing, vehicle +0.4, P-Value 0.23
  OD4S: Sting (0-5), Change From Baseline: −0.1
[1]; Day 1, over 24 hours of QID dosing, vehicle +0.8, P-Value 0.07
  OD4S: Burn (0-5), Change From Baseline: −0.1
[2]
  tear MDA adduct level after treatment relative to baseline, pooled groups: statistically lower
[3]; Day 2, dry eye chamber, p=0.03
  ocular redness versus vehicle: statistically significant improvement over vehicle
[3]; Day 2, over all time points in aggregate in the dry eye chamber, p<0.0001
  ocular discomfort score versus vehicle: statistically superior to vehicle
[3]; Day 2, over all time points in aggregate in the dry eye chamber, p=0.001
  visual analog scale (VAS) ocular dryness versus vehicle: statistically superior to vehicle
[3]; dry eye chamber
  time to improvement in ocular symptoms and redness following dosing: within minutes
[4]; human, in vivo
  most commonly reported adverse event in clinical trials: mild instillation site irritation
[4]; studied in over 1,100 patients
  safety in clinical trials: no observed safety concerns
